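Exposure lasted 48 hours, with cells grown in 96-well plates and compounds tested at five concentrations. Here, GI50 denotes the concentration required for 50% inhibition of growth.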 Calls of active or inactive are those of the source. Rule as the data show it: active = GI50 up to about 1.1 µM and inactive = higher.
What was measured:
Experiment in all cases: NCI anticancer screen, dose series, 48 h
[1] = tested on: NCI/ADR-RES
[2] = tested on: A549
[3] = tested on: MCF7
[4] = tested on: SN12C
[5] = tested on: SW-620
[6] = tested on: HCT-15
[7] = tested on: HOP-92
[8] = tested on: HOP-62
[9] = tested on: MDA-MB-231
[10] = tested on: SK-MEL-2
[11] = tested on: SNB-19
[12] = tested on: KM12
[13] = tested on: UACC-62
[14] = tested on: PC-3
[15] = tested on: OVCAR-5
[16] = tested on: SNB-75
[17] = tested on: K562
[18] = tested on: NCI-H23
[19] = tested on: SF-268
[20] = tested on: NCI-H522
[21] = tested on: SR
[22] = tested on: TK-10
[23] = tested on: U-251
[24] = tested on: BT-549
[25] = tested on: EKVX
[26] = tested on: SF-539
[27] = tested on: MDA-N
[28] = tested on: NCI-H460
[29] = tested on: HCT-116
[30] = tested on: LOX IMVI
[31] = tested on: IGROV-1
[32] = tested on: A498
[33] = tested on: MDA-MB-435
[34] = tested on: OVCAR-4
[35] = tested on: M14
[36] = tested on: SF-295
[37] = tested on: UO-31
[38] = tested on: SK-MEL-5
[39] = tested on: CAKI-1
[40] = tested on: OVCAR-8
[41] = tested on: Hs-578T
[42] = tested on: DU-145
[43] = tested on: HL-60
[44] = tested on: SK-OV-3
[45] = tested on: COLO 205
[46] = tested on: CCRF-CEM
[47] = tested on: HCC 2998
[48] = tested on: MOLT-4
[49] = tested on: T47D
[50] = tested on: RPMI-8226
[51] = tested on: ACHN
[52] = tested on: 786-0
[53] = tested on: Malme-3M
[54] = tested on: HT-29
[55] = tested on: UACC-257
[56] = tested on: OVCAR-3
[57] = tested on: RXF 393
[58] = tested on: NCI-H226
[59] = tested on: SK-MEL-28

## Nc1nc(N)c2c(Cl)c(CNc3ccc(C(=O)NC(CC(=O)O)C(=O)O)cc3)ccc2n1 (stereo unspecified)
[1]
  GI50: < 0.01 µM (active)
[2]
  GI50: < 0.01 µM (active)
[3]
  GI50: < 0.01 µM (active)
[4]
  GI50: < 0.01 µM (active)
[5]
  GI50: < 0.01 µM (active)
[6]
  GI50: < 0.01 µM
[7]
  GI50: 0.043 µM (active)
[8]
  GI50: < 0.027 µM (active)
[9]
  GI50: > 100 µM (inactive)
[10]
  GI50: > 100 µM (inactive)
[11]
  GI50: < 0.01 µM (active)
[12]
  GI50: < 0.01 µM (active)
[13]
  GI50: < 0.01 µM (active)
[14]
  GI50: 9.31 µM (inactive)
[15]
  GI50: < 0.01 µM (active)
[16]
  GI50: 8.87 µM (inactive)
[17]
  GI50: < 0.01 µM (active)
[18]
  GI50: < 0.01 µM (active)
[19]
  GI50: < 0.01 µM (active)
[20]
  GI50: < 0.01 µM (active)
[21]
  GI50: < 0.01 µM (active)
[22]
  GI50: < 0.01 µM (active)
[23]
  GI50: < 0.01 µM (active)
[24]
  GI50: < 0.01 µM (active)
[25]
  GI50: < 0.01 µM (active)
[26]
  GI50: < 0.01 µM (active)
[27]
  GI50: < 0.01 µM (active)
[28]
  GI50: < 0.01 µM (active)
[29]
  GI50: 10.7 µM (inactive)
[30]
  GI50: < 0.01 µM (active)
[31]
  GI50: < 0.01 µM (active)
[32]
  GI50: < 0.01 µM (active)
[33]
  GI50: < 0.01 µM (active)
[34]
  GI50: 3.69 µM (inactive)
[35]
  GI50: < 0.01 µM (active)
[36]
  GI50: < 0.01 µM (active)
[37]
  GI50: < 0.01 µM (active)
[38]
  GI50: < 0.01 µM (active)
[39]
  GI50: < 0.01 µM (active)
[40]
  GI50: < 0.01 µM (active)
[41]
  GI50: 22.8 µM (inactive)
[42]
  GI50: < 0.01 µM (active)
[43]
  GI50: < 0.01 µM (active)
[44]
  GI50: < 0.01 µM (active)
[45]
  GI50: < 0.01 µM (active)
[46]
  GI50: < 0.01 µM (active)
[47]
  GI50: > 100 µM (inactive)
[48]
  GI50: < 0.01 µM (active)
[49]
  GI50: > 100 µM (inactive)
[50]
  GI50: < 0.01 µM (active)
[51]
  GI50: < 0.01 µM (active)
[52]
  GI50: < 0.01 µM (active)
[53]
  GI50: 17.7 µM (inactive)
[54]
  GI50: < 0.01 µM (active)

## CCc1cc2c(c3c1CCCC3)CC1(Cc3ccc(C(=O)OC)cc3C1)C2 (stereo unspecified)
[1]
  GI50: > 100 µM (inactive)
[2]
  GI50: > 100 µM (inactive)
[55]
  GI50: 53.1 µM (inactive)
[3]
  GI50: > 100 µM (inactive)
[4]
  GI50: > 100 µM (inactive)
[5]
  GI50: > 100 µM (inactive)
[6]
  GI50: > 100 µM
[7]
  GI50: 36.7 µM (inactive)
[8]
  GI50: > 100 µM (inactive)
[9]
  GI50: > 100 µM (inactive)
[10]
  GI50: 94.6 µM (inactive)
[11]
  GI50: > 100 µM (inactive)
[12]
  GI50: > 100 µM (inactive)
[13]
  GI50: > 100 µM (inactive)
[14]
  GI50: 65 µM (inactive)
[15]
  GI50: > 100 µM (inactive)
[16]
  GI50: > 100 µM (inactive)
[17]
  GI50: 40.3 µM (inactive)
[18]
  GI50: > 100 µM (inactive)
[19]
  GI50: > 100 µM (inactive)
[56]
  GI50: > 100 µM (inactive)
[20]
  GI50: > 100 µM (inactive)
[21]
  GI50: 28.9 µM (inactive)
[22]
  GI50: > 100 µM (inactive)
[23]
  GI50: 86.1 µM (inactive)
[24]
  GI50: > 100 µM (inactive)
[25]
  GI50: 64.4 µM (inactive)
[26]
  GI50: > 100 µM (inactive)
[27]
  GI50: > 100 µM (inactive)
[28]
  GI50: > 100 µM (inactive)
[29]
  GI50: 54.3 µM (inactive)
[30]
  GI50: > 100 µM (inactive)
[31]
  GI50: > 100 µM (inactive)
[33]
  GI50: 52.6 µM (inactive)
[34]
  GI50: > 100 µM (inactive)
[35]
  GI50: > 100 µM (inactive)
[36]
  GI50: > 100 µM (inactive)
[57]
  GI50: > 100 µM (inactive)
[37]
  GI50: > 100 µM (inactive)
[38]
  GI50: 71.8 µM (inactive)
[40]
  GI50: > 100 µM (inactive)
[41]
  GI50: 60.3 µM (inactive)
[42]
  GI50: > 100 µM (inactive)
[43]
  GI50: 20.8 µM (inactive)
[58]
  GI50: > 100 µM (inactive)
[44]
  GI50: > 100 µM (inactive)
[45]
  GI50: > 100 µM (inactive)
[46]
  GI50: 18.3 µM (inactive)
[59]
  GI50: > 100 µM (inactive)
[47]
  GI50: > 100 µM (inactive)
[48]
  GI50: 35.4 µM (inactive)
[49]
  GI50: 46.8 µM (inactive)
[50]
  GI50: 44.6 µM (inactive)
[51]
  GI50: > 100 µM (inactive)
[52]
  GI50: > 100 µM (inactive)
[53]
  GI50: > 100 µM (inactive)
[54]
  GI50: 73.8 µM (inactive)

## COc1ccc(CC2COc3cc(OC)cc(OC)c3C2=O)cc1 (stereo unspecified)
[1]
  GI50: 8.34 µM (inactive)
[2]
  GI50: 33.9 µM (inactive)
[55]
  GI50: 32.5 µM (inactive)
[3]
  GI50: 36 µM (inactive)
[4]
  GI50: 38.9 µM (inactive)
[5]
  GI50: 29.8 µM (inactive)
[6]
  GI50: 9.51 µM
[7]
  GI50: 25.9 µM (inactive)
[8]
  GI50: 24.9 µM (inactive)
[9]
  GI50: 33.3 µM (inactive)
[10]
  GI50: 36.5 µM (inactive)
[11]
  GI50: 25.2 µM (inactive)
[12]
  GI50: 8.81 µM (inactive)
[13]
  GI50: 32.8 µM (inactive)
[14]
  GI50: 22.5 µM (inactive)
[15]
  GI50: 24.7 µM (inactive)
[17]
  GI50: 31 µM (inactive)
[18]
  GI50: 23.6 µM (inactive)
[19]
  GI50: 32.7 µM (inactive)
[56]
  GI50: 18.9 µM (inactive)
[20]
  GI50: 9.14 µM (inactive)
[21]
  GI50: 4.57 µM (inactive)
[22]
  GI50: 21.3 µM (inactive)
[23]
  GI50: 37 µM (inactive)
[24]
  GI50: 44.2 µM (inactive)
[25]
  GI50: 29.5 µM (inactive)
[26]
  GI50: 14.4 µM (inactive)
[27]
  GI50: 3.76 µM (inactive)
[28]
  GI50: 29.6 µM (inactive)
[29]
  GI50: 15.3 µM (inactive)
[30]
  GI50: 34.5 µM (inactive)
[31]
  GI50: 28.7 µM (inactive)
[32]
  GI50: 79.3 µM (inactive)
[33]
  GI50: 3.18 µM (inactive)
[34]
  GI50: 17.2 µM (inactive)
[35]
  GI50: 16.4 µM (inactive)
[36]
  GI50: 17.5 µM (inactive)
[57]
  GI50: 26.8 µM (inactive)
[37]
  GI50: 24.7 µM (inactive)
[38]
  GI50: 21.1 µM (inactive)
[39]
  GI50: 17.5 µM (inactive)
[40]
  GI50: 26.1 µM (inactive)
[41]
  GI50: 17.5 µM (inactive)
[42]
  GI50: 21.8 µM (inactive)
[43]
  GI50: 13.2 µM (inactive)
[44]
  GI50: 19.8 µM (inactive)
[45]
  GI50: 14.8 µM (inactive)
[59]
  GI50: 20.7 µM (inactive)
[48]
  GI50: 30.3 µM (inactive)
[49]
  GI50: 16.7 µM (inactive)
[50]
  GI50: 15.3 µM (inactive)
[51]
  GI50: 46.8 µM (inactive)
[52]
  GI50: 19 µM (inactive)
[53]
  GI50: 15.3 µM (inactive)
[54]
  GI50: 17.6 µM (inactive)
